In brackets after ≈: the same amount, converted by molar mass.
Experiments:
P. granulosum PPR-006 = assay: MIC assay; type: cell-based
Method: (§1) The Propionibacterium spp organisms were cultured and maintained on Wilkins-Chalgren Anaerobe Medium (agar and broth) at pH 6.0; cultures were incubated anaerobically at 37° C. for 72 hours.
This is a standard international method for quantitatively assessing the antimicrobial activity of a compound in a liquid medium. The method used a 96-well microtitre plate, capable of holding about 200 μl of liquid per well. […] The culture media were as described above for the relevant test organisms.
The wells were inoculated with a liquid suspension of freshly grown micro-organism and incubated under the conditions described above. After incubation, the microtitre plate was examined visually (with the aid of a light box) for cloudiness in each well, which would indicate microbial growth. The MIC value was recorded as the lowest concentration of test compound required to inhibit microbial growth, i.e., the lowest concentration for which the liquid in the well remained clear.
The assays were conducted in duplicate and included both negative (culture medium only) and positive (culture medium, diluting solvent and inoculum) controls.
The activity of TBHQ was tested against other Propionibacterium spp strains, including some with known antibiotic resistance. MIC, MBC and DDA assays were carried out as described above for each of the strains.

P. acnes NCTC 737 = assay: MBC assay; type: cell-based, Propionibacterium acnes
Method in brief: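 Cultures were kept on Wilkins-Chalgren Anaerobe agar and broth (pH 6.0), anaerobic, 37 °C, 72 h. The MBC, read as the minimum lethal concentration, came from sub-culturing post-MIC samples onto non-selective agar under those conditions and visually scoring growth.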

P. acnes PRP-010 = assay: Disc diffusion assay (DDA); type: cell-based, Propionibacterium acnes; settings: resistance MLSK, 200 μg per disc
Method: Other propionibacterial strains were also tested, as described in Example 4 below. These included certain antibiotic resistant propionibacteria, such as the two P. acnes strains designated PRP-010 and PRP-039 which are resistant respectively to macrolides-lincosamides-streptogramins-ketolides (MLSK) and to macrolides-lincosamides-streptogramins (MLS) and tetracycline—in other words, PRP-010 is resistant to erythromycin and clindamycin, and PRP-039 to erythromycin, clindamycin and tetracycline.
as §1
A sterile paper disc was impregnated with a sample of the test compound and a minimum of 30 minutes allowed for the solvents to evaporate as far as possible. The disc was then placed on an agar plate onto which the test micro-organism had been inoculated. The plate was then incubated under the conditions described above, following which it was examined visually for signs of bacterial growth. […] The diameter of this zone of “inhibition” was measured using a ProtoCOL™ automated zone sizer (Synbiosis, Cambridge, UK). […]
The area of the zone of inhibition was calculated from the measured zone diameter (D) using the formula π(D/2)^2. […]

H. influenzae ATCC 49247 [1] = assay: MBC assay; type: cell-based, Haemophilus influenzae
Method: (§2) The H. influenzae strain was cultured and maintained on Haemophilus Test Medium (HTM) agar/broth (the composition of which is as described in NCCLS M7-A6 Vol. 23 No. 2); cultures were incubated in a CO2 atmosphere at 37° C. for 24 hours.
(§3) This assay, normally carried out after an MIC assay, determines the minimum concentration of a compound that is lethal to the micro-organism being tested.
(§4) These samples were then individually sub-cultured on non-selective agar medium, under the incubation conditions described above. Following incubation they were examined visually for bacterial growth.
(§5) The activity of TBHQ against three other bacterial strains was investigated using MIC, MBC and DDA assays as described above. For the DDA assays, 200 μg of TBHQ was loaded onto each disc, using ethanol as the solvent.

H. influenzae ATCC 49247 [2] = assay: Disc diffusion assay (DDA); type: cell-based, Haemophilus influenzae; settings: 200 μg per disc
Method: as §2
(§6) A sterile paper disc was impregnated with a sample of the test compound and a minimum of 30 minutes allowed for the solvents to evaporate as far as possible. The disc was then placed on an agar plate onto which the test micro-organism had been inoculated. The plate was then incubated under the conditions described above, following which it was examined visually for signs of bacterial growth. If the test compound had antimicrobial activity, a circular zone of no growth would be obtained around the disc. The diameter of this zone of “inhibition” was measured using a ProtoCOL™ automated zone sizer (Synbiosis, Cambridge, UK). In general, a greater diameter and/or area of the zone of inhibition indicates a greater antimicrobial activity in the relevant test compound, although other factors such as test compound mobility through the agar gel may also influence the result.
(§7) The area of the zone of inhibition was calculated from the measured zone diameter (D) using the formula π(D/2)^2.
The activity of TBHQ against three other bacterial strains was investigated using MIC, MBC and DDA assays as described above. […]

P. acnes PRP-059 = assay: Disc diffusion assay (DDA); type: cell-based, Propionibacterium acnes; settings: resistance MLS, 200 μg per disc
Method: as §1, §6, §7
For the DDA assays, 200 μg of TBHQ was loaded onto each disc. The solvent used for the TBHQ was ethanol.

H. influenzae ATCC 49247 [3] = assay: MIC assay; type: cell-based; settings: Haemophilus influenzae, ATCC49247
Description: 5. Haemophilus influenzae ATCC 49247—a member of the genus Haemophilus, these organisms are Gram-negative bacilli which grow under aerobic or anaerobic conditions but require media with special supplements for laboratory culture. Strains of H. influenzae may be capsulated or non-capsulated. The capsulate strains are divided into serotypes, (designated b,c,d,e,f), on the basis of capsular antigens. The serotype H. influenzae type b is an important cause of invasive infections in humans, particularly in young children. The non-capsulate strains are common commensals in the upper respiratory tract, although there are also some healthy carriers of the type b strain. In the context of skin and topical treatments, H. influenzae can be a cause of cellulitis and otitis media (middle ear infection), again particularly in young children. […]
(§8) This is a standard international method for quantitatively assessing the antimicrobial activity of a compound in a liquid medium. […]
(§9) The wells were inoculated with a liquid suspension of freshly grown micro-organism and incubated under the conditions described above. […] The MIC value was recorded as the lowest concentration of test compound required to inhibit microbial growth, i.e., the lowest concentration for which the liquid in the well remained clear. […]

E. faecalis ATCC 29212 = assay: MBC assay; type: cell-based, Enterococcus faecalis
Method: The staphylococci and enterococci were cultured and maintained on Mueller-Hinton Medium (agar and broth) at pH 7.2; they were incubated aerobically at 37° C. for 24 hours.
as §3, §4, §5

S. pyogenes ATCC 12344 = assay: MIC assay; type: cell-based; settings: Streptococcus pyogenes, ATCC12344
Description: 3. Streptococcus pyogenes ATCC 12344—this is a Gram-positive […] bacterium; it is a member of the group A β-haemolytic streptococci which are occasional upper respiratory tract commensals in humans (10% of children, commensal carriage uncommon in adults, its main occurrence is as the agent of tonsillitis). It is clinically significant in the context of skin infections, being a causative agent of cellulitis, necrotising fasciitis, impetigo, erysipelas, wound infections and scarlet fever. Penicillin and erythromycin are the standard treatments for infections involving S. pyogenes. […] S. pyogenes is also a major cause of upper respiratory tract infections. […]
as §8, §9

Structure (SMILES): CC(C)(C)c1cc(O)ccc1O [TBHQ, 2-t-butyl hydroquinone]
- MIC (P. granulosum PPR-006): 7.8 µg/mL (≈ 46.9 µM)
- MIC/MBC ratio (P. acnes NCTC 737; P. acnes NCTC 737): 0.5
- MBC (P. acnes NCTC 737; P. acnes NCTC 737 (Table 6), resistance None): 15.6 µg/mL (≈ 93.9 µM)
- DDA (P. acnes PRP-010): 18.71 mm
- MIC/MBC ratio (H. influenzae ATCC 49247 [1]): 1
- MBC (H. influenzae ATCC 49247 [1]; Haemophilus influenzae, ATCC49247): 15.6 µg/mL (≈ 93.9 µM)
- DDA (H. influenzae ATCC 49247 [2]): 36.33 mm
- DDA (P. acnes PRP-059): 17.56 mm
- MIC (H. influenzae ATCC 49247 [3]): 15.6 µg/mL (≈ 93.9 µM)
- MIC/MBC ratio (E. faecalis ATCC 29212): 0.5
- MIC (S. pyogenes ATCC 12344): 62.5 to 125 µg/mL (≈ 376 to 752 µM)

From patent US20090030086A1, “ANTIMICROBIAL AGENTS” (priority 2005, published 2009)
